Results from patent US20110301142A1, “ANTAGONISTS OF LYSOPHOSPHATIDIC ACID RECEPTORS” (priority 2008, published 2011).

Key:
[1] = molecular target: T1, human LPA1 (Homo sapiens, UniProt Q92633); test: LPA1 calcium flux assay (HLPA1 Ca Flux); type: cell-based; details: Human LPA1 expressing CHO cells, stimulated with 10 nM LPA
T1 construct: the full-length cDNA for human LPA1 was obtained by PCR of the reverse transcription reaction; expressed in transfected cells
How it was run: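 Compounds were fitted for IC50 from inhibition of the intracellular calcium rise evoked by 10 nM LPA. Test system: dye-loaded CHO cells stably transfected with human LPA1, serum-free overnight, with 30 min compound pretreatment at room temperature before stimulation.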

[2] = molecular target: T2, human LPA3 (Homo sapiens, UniProt Q9UBY5); test: LPA3 calcium flux assay; type: cell-based; details: Human LPA3 expressing CHO cells, stimulated with 10 nM LPA; read-out: HLPA3 Ca Flux IC50
T2 construct: The full-length cDNA fragment for human LPA3 was obtained by PCR from the vector; expressed in transfected cells; cDNA from the Missouri S&T cDNA Resource Center
T2 sequence (Q9UBY5 1-353): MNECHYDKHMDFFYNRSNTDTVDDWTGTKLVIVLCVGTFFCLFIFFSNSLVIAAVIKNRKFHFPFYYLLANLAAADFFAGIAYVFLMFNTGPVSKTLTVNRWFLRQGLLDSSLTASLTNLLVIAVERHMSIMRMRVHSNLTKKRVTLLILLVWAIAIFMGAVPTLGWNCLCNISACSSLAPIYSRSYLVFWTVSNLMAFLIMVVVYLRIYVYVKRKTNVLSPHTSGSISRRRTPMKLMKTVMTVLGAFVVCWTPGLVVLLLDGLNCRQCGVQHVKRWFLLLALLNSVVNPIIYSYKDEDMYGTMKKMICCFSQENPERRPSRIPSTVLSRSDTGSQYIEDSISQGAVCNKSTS
How it was run: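 Stably transfected CHO cells, serum-starved overnight, loaded with Calcium 4 dye 1 h at 37 °C in HBSS/20 mM Hepes with 0.3% fatty-acid-free HSA. Compounds preincubated 30 min at room temperature, then cells stimulated with 10 nM LPA; intracellular Ca2+ read by fluorescence; IC50 from titration curves.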

T1 sequence (Q92633 whole entry): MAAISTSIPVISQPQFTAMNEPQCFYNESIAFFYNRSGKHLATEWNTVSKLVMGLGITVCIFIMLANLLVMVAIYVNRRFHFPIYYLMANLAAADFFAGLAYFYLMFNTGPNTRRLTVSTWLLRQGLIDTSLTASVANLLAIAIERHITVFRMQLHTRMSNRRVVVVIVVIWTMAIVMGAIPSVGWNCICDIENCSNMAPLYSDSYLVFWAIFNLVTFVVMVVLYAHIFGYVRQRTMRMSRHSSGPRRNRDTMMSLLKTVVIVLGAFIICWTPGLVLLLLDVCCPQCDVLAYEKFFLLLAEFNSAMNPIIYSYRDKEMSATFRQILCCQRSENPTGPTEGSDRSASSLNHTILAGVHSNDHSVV

Row | Structure (SMILES) | IC50 [1] [nM] | IC50 [2] [nM]
1 | Cc1noc(-c2ccc(-c3ccc(CC(=O)O)cc3)c(Cl)c2)c1NC(=O)O[C@H](C)c1ccccc1Cl [Compound 1-131, (2′-Chloro-4′-{4-[(R)-1-(2-chloro-phenyl)-ethoxycarbonylamino]-3-methyl-isoxazol-5-yl}-biphenyl-4-yl)-acetic acid] | < 300 | 1000 to 50000
2 | Cc1noc(-c2ccc(-c3ccc(CC(=O)O)cc3)c(F)c2)c1NC(=O)O[C@H](C)c1ccccc1Cl [Compound 1-132, (4′-{4-[(R)-1-(2-Chloro-phenyl)-ethoxycarbonylamino]-3-methyl-isoxazol-5-yl}-2′-fluoro-biphenyl-4-yl)-acetic acid] | < 300 | 1000 to 50000
3 | Cc1noc(-c2ccc(-c3ccc(C(=O)O)cc3)cc2)c1NC(=O)O[C@H](C)c1ccccc1Cl [Compound 1-133, 4′-{4-[(R)-1-(2-Chloro-phenyl)-ethoxycarbonylamino]-3-methyl-isoxazol-5-yl}-biphenyl-4-carboxylic acid] | < 300 | 300 to 1000
4 | Cc1noc(-c2ccc(Oc3cccc(CC(=O)O)c3)cc2)c1NC(=O)O[C@H](C)c1ccccc1Cl [Compound 1-137, [3-(4-{4-[(R)-1-(2-Chloro-phenyl)-ethoxycarbonylamino]-3-methyl-isoxazol-5-yl}-phenoxy)-phenyl]acetic acid] | < 300 | 1000 to 50000
5 | Cc1noc(-c2ccc(Oc3ccc(CC(=O)O)cc3)cc2)c1NC(=O)O[C@H](C)c1ccccc1Cl [Compound 1-138, [4-(4-{4-[(R)-1-(2-Chloro-phenyl)-ethoxycarbonylamino]-3-methyl-isoxazol-5-yl}-phenoxy)-phenyl]-acetic acid] | < 300 | 300 to 1000
6 | Cc1noc(-c2ccc(-c3ccc(C(O)C(=O)O)cc3)cc2)c1NC(=O)O[C@H](C)c1ccccc1F (stereo partly drawn) [Compound 1-139, (4′-{4-[(R)-1-(2-Fluoro-phenyl)-ethoxycarbonylamino]-3-methyl-isoxazol-5-yl}-biphenyl-4-yl)-hydroxy-acetic acid] | < 300 | 1000 to 50000
7 | CCC(C(=O)O)c1ccc(-c2ccc(-c3onc(C)c3NC(=O)O[C@H](C)c3ccccc3)cn2)cc1 (stereo partly shown) [Compound 1-142] | < 300 | 1000 to 50000
8 | Cc1noc(-c2ccc(-c3ccc(CC(=O)O)cc3)cc2)c1NC(=O)O[C@@H](C)c1ccccc1 [Compound 1-143, {4′-[3-Methyl-4-((S)-1-phenyl-ethoxycarbonylamino)-isoxazol-5-yl]-biphenyl-4-yl}-acetic acid] | < 300 | 1000 to 50000
9 | Cc1noc(-c2ccc(-c3ccc(CC(=O)O)cc3)cc2)c1NC(=O)O[C@H](C)c1cccc(O)c1 [Compound 1-144, (4′-{4-[(R)-1-(3-Hydroxy-phenyl)-ethoxycarbonylamino]-3-methyl-isoxazol-5-yl}-biphenyl-4-yl)-acetic acid] | 1000 to 50000 | > 50000
10 | Cc1noc(-c2ccc(-c3ccc(CC#N)cc3)cc2)c1NC(=O)O[C@H](C)c1ccccc1Cl [Compound 2-2, [5-(4′-Cyanomethyl-biphenyl-4-yl)-3-methyl-isoxazol-4-yl]-carbamic acid (R)-1-(2-chloro-phenyl)-ethyl ester] | < 300 | 1000 to 50000
11 | Cc1noc(-c2ccc(-c3ccc(CC#N)cc3)cc2)c1NC(=O)O[C@H](C)c1ccccc1F [Compound 2-3, [5-(4′-Cyanomethyl-biphenyl-4-yl)-3-methyl-isoxazol-4-yl]-carbamic acid (R)-1-(2-fluoro-phenyl)-ethyl ester] | < 300 | > 50000
12 | Cc1noc(-c2ccc(-c3ccc(Cc4nn[nH]n4)cc3)cc2)c1NC(=O)O[C@H](C)c1ccccc1F [Compound 2-4, {3-Methyl-5-[4′-(2H-tetrazol-5-ylmethyl)-biphenyl-4-yl]-isoxazol-4-yl}-carbamic acid (R)-1-(2-fluoro-phenyl)-ethyl ester] | < 300 | 1000 to 50000
13 | Cc1noc(-c2ccc(-c3ccc(Cc4nn[nH]n4)cc3)cc2)c1NC(=O)O[C@H](C)c1ccccc1Cl [Compound 2-5, {3-Methyl-5-[4′-(2H-tetrazol-5-ylmethyl)-biphenyl-4-yl]-isoxazol-4-yl}-carbamic acid (R)-1-(2-chloro-phenyl)-ethyl ester] | < 300 | 1000 to 50000
14 | Cc1noc(-c2cnc(-c3ccc(CC(=O)O)cc3)s2)c1NC(=O)O[C@H](C)c1ccccc1F [Compound 3-4, [4-(5-{4-[(R)-1-(2-Fluoro-phenyl)-ethoxycarbonylamino]-3-methyl-isoxazol-5-yl}-thiazol-2-yl)-phenyl]-acetic acid] | < 300 | > 50000
